Test results taken from paper PMC5397615, “Rapid Identification and Isolation of Inhibitors of Rat Lens Aldose Reductase and Antioxidant in Maackia amurensis” (BioMed Research International, 2017).

Key:
[1] = biological target: T1, rat lens AR (Rattus norvegicus, UniProt P07943); experiment: HPLC microfractionation rat lens AR assay; assay type: biochemical; parameters: concentration or dose not given beside the values; details: amount of efficacy in HPLC microfractionation (Table 3)
T1 construct: Rat lens (RL) homogenate was prepared according to the modified method of Hayman and Kinoshita; from tissue; host or cells: lens of male Sprague-Dawley rats (homogenate supernatant, partially purified)

[2] = biological target: T2, rat lens aldose reductase (RLAR) (Rattus norvegicus, UniProt P07943); experiment: Rat lens AR inhibitory activity assay; assay type: biochemical; details: isolated compounds; for IC50: read-out: RLAR inhibition IC50
T2 construct: Rat lens (RL) homogenate was prepared according to the modified method of Hayman and Kinoshita; from tissue; host or cells: lens of male Sprague-Dawley rats (homogenate supernatant, partially purified)

[3] = ABTS-offline HPLC assay of the EtOAc fraction; details: 254 nm; for Peak area change after ABTS (in words): EtOAc fraction spiked with ABTS solution, Figure 1(a); for Antioxidant quantitative reduction (%): amount of peak decrease in ABTS-offline HPLC
[4] = ABTS radical scavenging activity (TEAC assay); details: for IC50: read-out: Antioxidant IC50
[5] = Partition coefficient (K) in two-phase HSCCC solvent systems; assay type: physicochemical
[6] = n-Hexane-ethyl acetate-methanol-water 2.5 : 7.5 : 5 : 5 (v/v)
[7] = n-Hexane-ethyl acetate-methanol-water 3 : 7 : 4.5 : 5.5 (v/v)
[8] = n-Hexane-ethyl acetate-methanol-water 4 : 6 : 2.5 : 7.5 (v/v)
[9] = n-Hexane-ethyl acetate-methanol-water 4 : 6 : 3.5 : 5.5 (v/v)

| RLAR inhibition, Inhibition (%) [1] | IC50 [2] | IC50 ([4]; isolated compounds) | RLAR activity (in words) [2] | K values [5, 6] | K values [5, 7] | K values [5, 8] | K values [5, 9] | K values ([5]; n-Heptane-ethyl acetate-methanol-water 1 : 6 : 1 : 6 (v/v)) | K values ([5]; n-Hexane-ethyl acetate-methanol-water 1 : 3 : 1 : 3 (v/v)) | Antioxidant IC50 ([4]; concentration of 50% inhibition) | Structure (SMILES) | Peak area change after ABTS (in words) [3] | Antioxidant quantitative reduction (%) [3] | Antioxidant activity (in words) ([4]; isolated compounds) | Antioxidant TEAC (Trolox equivalent antioxidant capacity) ([4]; relative to Trolox = 1.00) |
| --- | --- | --- | --- | --- | --- | --- | --- | --- | --- | --- | --- | --- | --- | --- | --- |
| 5.21% | > 500 µM | 13.51 ± 0.04 µM | did not have RLAR activity |  |  |  |  |  |  |  | COc1cc(/C=C/C(=O)O)ccc1O [Compound 3, trans-ferulic acid] | peak area reductions | 20.06% |  |  |
|  | > 500 µM | 6.73 ± 0.04 µM | did not have RLAR activity | 0.37 | 0.34 | 3.91 | 0.37 |  |  |  | Oc1cc(O)cc(/C=C/c2ccc(O)c(O)c2)c1 [Compound 5, piceatannol] | peak area reductions | 34.68% |  |  |
| 38.54% | 57.1 ± 3.23 µM | > 500 µM |  | 2.04 | 2.52 | 15.01 | 3.73 |  | 35.34 |  | O=c1c(-c2ccc(O)cc2)coc2cc(O)cc(O)c12 [Compound 8, genistein] |  | 2.24% |  |  |
| 30.11% | 69.2 ± 2.57 µM | > 500 µM |  | 0.33 | 0.40 | 3.39 | 0.39 |  |  |  | COc1ccc(-c2coc3cc(O)ccc3c2=O)cc1 [Compound 9, formononetin] |  | 0.69% |  |  |

Further lines, the compound ahead of its results:

| Structure (SMILES) | RLAR inhibition, Inhibition (%) [1] | IC50 [2] | IC50 ([4]; isolated compounds) | RLAR activity (in words) [2] | K values [5, 6] | K values [5, 7] | K values [5, 8] | K values [5, 9] | K values ([5]; n-Heptane-ethyl acetate-methanol-water 1 : 6 : 1 : 6 (v/v)) | K values ([5]; n-Hexane-ethyl acetate-methanol-water 1 : 3 : 1 : 3 (v/v)) | Antioxidant IC50 ([4]; concentration of 50% inhibition) | Peak area change after ABTS (in words) [3] | Antioxidant quantitative reduction (%) [3] | Antioxidant activity (in words) ([4]; isolated compounds) | Antioxidant TEAC (Trolox equivalent antioxidant capacity) ([4]; relative to Trolox = 1.00) |
| --- | --- | --- | --- | --- | --- | --- | --- | --- | --- | --- | --- | --- | --- | --- | --- |
| O=C(/C=C/c1ccc(O)c(O)c1)O[C@@H]1C[C@](O)(C(=O)O)C[C@@H](O)[C@H]1O [Compound 1, chlorogenic acid] | 51.02% | 4.2 ± 3.2 µM |  |  |  |  |  |  |  |  |  |  |  |  |  |
| COc1c(O[C@@H]2O[C@H](CO)[C@@H](O)[C@H](O)[C@H]2O)cc2occ(-c3ccc(O)cc3)c(=O)c2c1O [Compound 4, tectoridin] | 43.37% | 50.4 ± 2.17 µM | > 500 µM |  |  |  |  |  |  |  |  | slightly decreased | 8.43% | did not have antioxidant activity |  |
| Oc1ccc(/C=C/c2cc(O)cc(O)c2)cc1 [Compound 6, resveratrol] | 29.31% | 118 ± 3.12 µM | 11.05 ± 0.04 µM |  | 0.57 | 0.59 | 4.62 | 0.90 | 9.56 |  |  |  |  |  |  |
| O=c1c(-c2ccc(O)cc2)coc2cc(O)ccc12 [Compound 7, daidzein] | 28.14% | 152 ± 2.91 µM | > 500 µM |  |  |  |  |  |  |  |  |  | 0.48% |  |  |
| Cc1c(C)c2c(c(C)c1O)CCC(C)(C(=O)O)O2 (stereo not drawn) [Trolox, 6-hydroxy-2,5,7,8-tetrame-thylchroman-2-carboxylic acid, reference compound] |  |  |  |  |  |  |  |  |  |  | 8.72 ± 0.01 µg/mL |  |  |  | 1.00 |
